# Legend:
# [1] = biological target: T1, RmlA (glucose-1-phosphate thymidylyltransferase, gene 1774) (Pectobacterium actinidiae, UniProt A0ABW8GFN0); test: microscale thermophoresis, FITC-labelled RmlA; details: read-out: binding affinity; 50 mM Tris-HCl, 1 mM MgCl2, 0.05% Tween 20, pH 8.0; ligand as disodium salt
# T1 construct: gene rfbA; intact rmlA cloned from GX1 genomic DNA into pET32a; fusion protein; E. coli ArcticExpress (DE3); FITC-labelled
# [2] = biological target: T2, RmlA (glucose-1-phosphate thymidylyltransferase, gene 1774) (Pectobacterium actinidiae, UniProt A0ABW8GFN0, G107A/D108A/N109A/G144A/E159A/V170A/E196A); details: read-out: binding affinity; 50 mM Tris-HCl, 1 mM MgCl2, 0.05% Tween 20, pH 8.0; ligand as disodium salt
# T2 construct: gene rfbA
Compound,Kd [1] [mM],Kd [2] [mM]
O=P(O)(O)O[C@H]1O[C@H](CO)[C@@H](O)[C@H](O)[C@H]1O [G-1-P],0.0733,8.96
Cc1cn([C@H]2C[C@H](O)[C@@H](COP(=O)(O)OP(=O)(O)OP(=O)(O)O)O2)c(=O)[nH]c1=O [dTTP],0.199,2.71
